From patent publication US9989519B1, “Method for determining in vitro bioequivalence of a sucralfate suspension sample to a sucralfate suspension reference listed drug (RLD)” (Clayton Pharmaceuticals, LLC, priority 2017, dated 2018) come the findings set out here.

For the experiment, the system named is Caco-2 cell monolayers. The experiment can be described thus: Indomethacin-induced damage (loss of TEER) in Caco-2 cell monolayers, assay development. It is filed as cell-based, human. As for the experimental part:
Considering the fact that the Caco-2 cell model mimics the human intestinal mucosa, and that the intraluminal pH of the small intestine ranges from approximately 6.0 to 7.4, evaluation of the damage induced by indomethacin (the chosen ulcerogenic agent, the use of which was previously reported) was performed at these two pH conditions. The choice of 0.75 mM indomethacin was based on earlier observations reported for a similar evaluation using Caco-2 cells for this initial assay development stage. For each pH condition, the damage was measured by comparing the TEER values of indomethacin-treated cell monolayers with those of control cell monolayers before and after the assay, and the % of TEER remaining (compared to the control treatment) was calculated. The results are illustrated below in FIG. 7. […] In contrast, for the assay with the pH condition of 6.0, approximately 50% of the TEER was lost by two hours and nearly 80% of the TEER was lost by the end of the assay duration of 5 hours. […] Therefore, pH 6.0 was selected as the optimal pH condition on the apical (modeling the luminal) side for this assay. It was also noted that the majority of the damage was caused between 2 and 3 hours of duration; any additional damage after three hours was marginal. For this reason, further evaluations were performed at a truncated duration of 2 to 3 hours. Considering the fact that significant damage to the cells was induced post two hours in the assessment above and the fact that a shorter assay duration would be desirable for the purposes of experimental logistics, different concentrations (1, 1.5 and 2 mM) of indomethacin were tested to understand the extent of damage caused to the cell monolayers as a function of indomethacin concentration using apical pH of 6.0 and a 3 hour duration. […] Therefore, a concentration of 2 mM was selected as the optimal concentration for this assay.

For the molecule `COc1ccc2c(c1)c(CC(=O)O)c(C)n2C(=O)c1ccc(Cl)cc1` [indomethacin], the “damage to the cell monolayers as a function of indomethacin concentration” value (2 mM (1, 1.5 and 2 mM tested), apical pH 6.0, 3 hour duration) is recorded as “Maximum damage”. Further, the TEER lost is reported as around 80% (indomethacin 0.75 mM, apical pH 6.0, 5 hours) and “approximately 50%” (indomethacin 0.75 mM, apical pH 6.0, two hours). The “loss of TEER” value (indomethacin 0.75 mM, pH 7.4, 5 hours) was “a significant loss of TEER was not observed”.
